Results reported in PubChem BioAssay AID328 (DTP/NCI, 2004).
Where “and” joins values, the source holds several entries; their conditions need not be identical. Identical values can stand only once. Toxic doses and inconclusive results are not listed.

Tested on: BDF1 mice, P388 leukemia ip, median survival T/C
Assay: NCI In Vivo Anticancer Drug Screen. Data for tumor model P388 Leukemia (intraperitoneal) in B6D2F1 (BDF1) mice
Conditions: endpoint: median survival time, higher = longer survival
How it was run: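 Survival ratio, drug arm over vehicle arm, in mice with a transplanted tumour.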

[1] = dose: 25.0 mg/kg/injection, schedule: Q01DX009 (ip), vehicle: Klucel (hydroxypropylcellulose) (HPC)
[2] = dose: 50.0 mg/kg/injection, schedule: Q04DX003 (ip), vehicle: Klucel (hydroxypropylcellulose) (HPC)
[3] = dose: 100.0 mg/kg/injection, schedule: Q04DX003 (ip), vehicle: Klucel (hydroxypropylcellulose) (HPC)
[4] = dose: 100.0 mg/kg/injection, schedule: Q04DX003 (ip), vehicle: saline with Tween-80
[5] = dose: 200.0 mg/kg/injection, schedule: Q04DX003 (ip), vehicle: saline with Tween-80
[6] = dose: 400.0 mg/kg/injection, schedule: Q04DX003 (ip), vehicle: saline with Tween-80
[7] = dose: 50.0 mg/kg/injection, schedule: Q01DX009 (ip), vehicle: saline with Tween-80
[8] = dose: 100.0 mg/kg/injection, schedule: Q01DX009 (ip), vehicle: saline with Tween-80
[9] = dose: 200.0 mg/kg/injection, schedule: Q04DX003 (ip), vehicle: Klucel (hydroxypropylcellulose) (HPC)
[10] = dose: 12.5 mg/kg/injection, schedule: Q01DX009 (ip), vehicle: saline
[11] = dose: 12.5 mg/kg/injection, schedule: Q04DX003 (ip), vehicle: saline
[12] = dose: 25.0 mg/kg/injection, schedule: Q01DX009 (ip), vehicle: saline
[13] = dose: 25.0 mg/kg/injection, schedule: Q04DX003 (ip), vehicle: saline
[14] = dose: 50.0 mg/kg/injection, schedule: Q04DX003 (ip), vehicle: saline
[15] = dose: 100.0 mg/kg/injection, schedule: Q04DX003 (ip), vehicle: saline
[16] = dose: 100.0 mg/kg/injection, schedule: Q01DX009 (ip), vehicle: Klucel (hydroxypropylcellulose) (HPC)
[17] = dose: 200.0 mg/kg/injection, schedule: Q01DX009 (ip), vehicle: Klucel (hydroxypropylcellulose) (HPC)
[18] = dose: 400.0 mg/kg/injection, schedule: Q01DX009 (ip), vehicle: Klucel (hydroxypropylcellulose) (HPC)
[19] = dose: 50.0 mg/kg/injection, schedule: Q01DX009 (ip), vehicle: Klucel (hydroxypropylcellulose) (HPC)
[20] = dose: 25.0 mg/kg/injection, schedule: Q01DX009 (ip), vehicle: saline with Tween-80

O=Ic1ccccc1
T/C (dose: 6.25 mg/kg/injection, schedule: Q01DX009 (ip), vehicle: Klucel (hydroxypropylcellulose) (HPC)): 105 % of control and 118 % of control
T/C (dose: 12.5 mg/kg/injection, schedule: Q01DX009 (ip), vehicle: Klucel (hydroxypropylcellulose) (HPC)): 105 % of control and 116 % of control
T/C [1]: 122 % of control and 124 % of control and 204 % of control
T/C [2]: 104 % of control
T/C [3]: 95 % of control

O=C(/C(=C/c1ccccc1)CN1CCOCC1)c1ccccc1
T/C (dose: 25.0 mg/kg/injection, schedule: Q04DX003 (ip), vehicle: Klucel (hydroxypropylcellulose) (HPC)): 91 % of control
T/C [2]: 95 % of control
T/C [3]: 91 % of control

CSC1C(=O)Nc2ccc(Cl)cc21 (stereo unspecified)
T/C [4]: 97 % of control and 108 % of control
T/C [5]: 98 % of control and 99 % of control
T/C [6]: 99 % of control and 110 % of control
T/C (dose: 600.0 mg/kg/injection, schedule: Q04DX003 (ip), vehicle: saline with Tween-80): 92 % of control

CC(C)(C)OP(=O)(OC(C)(C)C)c1ccccc1
T/C [7]: 118 % of control
T/C [8]: 98 % of control

Cc1cc(NCCCCNCCCNc2cc(C)nc3cc(N)ccc23)c2ccc(N)cc2n1
T/C (dose: 12.5 mg/kg/injection, schedule: Q01DX009 (ip), vehicle: other): 155 % of control

C=CC(=O)NCCCC(=O)O
T/C (dose: 50.0 mg/kg/injection, schedule: Q01DX009 (ip), vehicle: saline): 94 % of control
T/C (dose: 100.0 mg/kg/injection, schedule: Q01DX009 (ip), vehicle: saline): 91 % of control
T/C (dose: 200.0 mg/kg/injection, schedule: Q01DX009 (ip), vehicle: saline): 100 % of control

C=CCNC(=S)Nc1cc(Cl)ccc1OC
T/C [3]: 109 % of control
T/C [9]: 95 % of control
T/C (dose: 400.0 mg/kg/injection, schedule: Q04DX003 (ip), vehicle: Klucel (hydroxypropylcellulose) (HPC)): 95 % of control

CCCCCCCCN(N)C12CC3CC(CC(C3)C1)C2
T/C [10]: 116 % of control
T/C [11]: 90 % of control
T/C [12]: 119 % of control
T/C [13]: 100 % of control
T/C [14]: 94 % of control
T/C [15]: 100 % of control

OC1C2CC3C1C3C2O (stereo unspecified)
T/C [4]: 86 % of control
T/C [5]: 100 % of control
T/C [6]: 104 % of control

COc1cc(NS(C)(=O)=O)ccc1NS(C)(=O)=O
T/C [16]: 87 % of control
T/C [17]: 87 % of control
T/C [18]: 87 % of control

Cc1ccc(S(=O)(=O)NCC(C)C)cc1
T/C [19]: 94 % of control
T/C [16]: 86 % of control
T/C [17]: 104 % of control
T/C [18]: 102 % of control

NC(=O)N/N=C1\CCCC(CCC(=O)O)C1 (stereo unspecified)
T/C (dose: 100.0 mg/kg/injection, schedule: Q01DX001 (ip), vehicle: Klucel (hydroxypropylcellulose) (HPC)): 96 % of control
T/C (dose: 200.0 mg/kg/injection, schedule: Q01DX001 (ip), vehicle: Klucel (hydroxypropylcellulose) (HPC)): 100 % of control
T/C (dose: 400.0 mg/kg/injection, schedule: Q01DX001 (ip), vehicle: Klucel (hydroxypropylcellulose) (HPC)): 100 % of control

S=P(N1CC1)(N1CC1)N1CC1
T/C (dose: 0.19 mg/kg/injection, schedule: Q01DX009 (ip), vehicle: saline): 114 % of control
T/C (dose: 0.75 mg/kg/injection, schedule: Q01DX010 (ip), vehicle: saline): 90 % of control
T/C (dose: 1.0 mg/kg/injection, schedule: Q01DX001 (oral), vehicle: saline): 109 % of control
T/C (dose: 1.5 mg/kg/injection, schedule: Q01DX009 (ip), vehicle: saline): 121 % of control
T/C (dose: 1.5 mg/kg/injection, schedule: Q01DX010 (ip), vehicle: saline): 90 % of control and 109 % of control
T/C (dose: 3.0 mg/kg/injection, schedule: Q01DX009 (ip), vehicle: saline): 112 % of control
T/C (dose: 6.0 mg/kg/injection, schedule: Q01DX009 (ip), vehicle: saline): 91 % of control and 93 % of control and 206 % of control
T/C (dose: 6.0 mg/kg/injection, schedule: Q01DX010 (ip), vehicle: saline): 109 % of control and 110 % of control
T/C (dose: 12.0 mg/kg/injection, schedule: Q01DX009 (ip), vehicle: saline): 111 % of control

Cc1noc2nccnc12
T/C [20]: 95 % of control
T/C [7]: 95 % of control

CC1(C)S[C@@H]2[C@H](NC(=O)CCC[C@@H](N)C(=O)O)C(=O)N2[C@H]1C(=O)O
T/C (dose: 23.0 mg/kg/injection, schedule: Q01DX009 (ip), vehicle: saline): 99 % of control
T/C (dose: 47.0 mg/kg/injection, schedule: Q01DX009 (ip), vehicle: saline): 106 % of control
T/C (dose: 94.0 mg/kg/injection, schedule: Q01DX009 (ip), vehicle: saline): 107 % of control and 117 % of control and 120 % of control
T/C (dose: 188.0 mg/kg/injection, schedule: Q01DX009 (ip), vehicle: saline): 102 % of control and 104 % of control and 106 % of control
T/C (dose: 750.0 mg/kg/injection, schedule: Q01DX009 (ip), vehicle: saline): 95 % of control and 102 % of control

CC(=O)/C=C\c1ccc(Cl)cc1
T/C [19]: 100 % of control
T/C [16]: 111 % of control
T/C [17]: 109 % of control
T/C [18]: 111 % of control

NN(c1ccccc1)c1ccc2ccccc2c1
T/C [2]: 95 % of control
T/C [3]: 104 % of control
T/C [9]: 109 % of control

COc1ccc2cc(Br)ccc2c1
T/C [4]: 95 % of control
T/C [5]: 109 % of control
T/C [6]: 100 % of control

CC(C)COC(=O)NCCF
T/C (dose: 6.25 mg/kg/injection, schedule: Q01DX009 (ip), vehicle: saline with Tween-80): 107 % of control
T/C (dose: 12.5 mg/kg/injection, schedule: Q01DX009 (ip), vehicle: saline with Tween-80): 112 % of control
T/C [20]: 120 % of control

COc1cc(C=Nc2cccc(C(=O)O)c2)ccc1N(CCCl)CCCl
T/C (dose: 66.0 mg/kg/injection, schedule: Q04DX003 (ip), vehicle: saline with Tween-80): 260 % of control

CCOC(=O)C(C#N)c1cccc(C)c1 (stereo unspecified)
T/C [4]: 100 % of control
T/C [5]: 100 % of control

OCC(I)C(CO)[n+]1ccccc1 (stereo unspecified)
T/C [10]: 107 % of control
T/C [11]: 88 % of control
T/C [12]: 107 % of control
T/C [13]: 103 % of control
T/C [14]: 100 % of control

COc1ccc(C(SCC(N)C(=O)O)(c2ccccc2)c2ccc(OC)cc2)cc1 (stereo unspecified)
T/C (dose: 3.0 mg/kg/injection, schedule: Q01DX009 (ip), vehicle: Klucel (hydroxypropylcellulose) (HPC)): 123 % of control
T/C (dose: 4.8 mg/kg/injection, schedule: Q04DX003 (ip), vehicle: Klucel (hydroxypropylcellulose) (HPC)): 104 % of control
T/C (dose: 7.0 mg/kg/injection, schedule: Q01DX009 (ip), vehicle: Klucel (hydroxypropylcellulose) (HPC)): 150 % of control
T/C (dose: 7.2 mg/kg/injection, schedule: Q04DX003 (ip), vehicle: Klucel (hydroxypropylcellulose) (HPC)): 104 % of control
T/C (dose: 10.0 mg/kg/injection, schedule: Q01DX009 (ip), vehicle: Klucel (hydroxypropylcellulose) (HPC)): 170 % of control
T/C (dose: 11.0 mg/kg/injection, schedule: Q04DX003 (ip), vehicle: Klucel (hydroxypropylcellulose) (HPC)): 122 % of control
T/C (dose: 16.0 mg/kg/injection, schedule: Q01DX009 (ip), vehicle: Klucel (hydroxypropylcellulose) (HPC)): 154 % of control
T/C [1]: 172 % of control and 181 % of control
T/C [13]: 154 % of control
T/C (dose: 33.0 mg/kg/injection, schedule: Q04DX003 (ip), vehicle: saline): 209 % of control
T/C (dose: 35.0 mg/kg/injection, schedule: Q01DX009 (ip), vehicle: Klucel (hydroxypropylcellulose) (HPC)): 204 % of control
T/C [14]: 209 % of control and 213 % of control
T/C (dose: 75.0 mg/kg/injection, schedule: Q04DX003 (ip), vehicle: saline): 231 % of control
T/C [15]: 95 % of control

Cc1ccc(C2NC(=O)c3ccccc3N2)c(C)c1 (stereo unspecified)
T/C [16]: 110 % of control
T/C [17]: 110 % of control
T/C [18]: 120 % of control

CCCCCCNc1c(F)c(C#N)c(F)c(F)c1C#N
T/C [7]: 103 % of control
T/C [8]: 93 % of control
T/C (dose: 200.0 mg/kg/injection, schedule: Q01DX009 (ip), vehicle: saline with Tween-80): 110 % of control

O=NN(CCF)C(=O)NC1CCS(=O)(=O)CC1
T/C (dose: 0.15 mg/kg/injection, schedule: Q04DX003 (ip), vehicle: saline): 115 % of control
T/C (dose: 0.3 mg/kg/injection, schedule: Q04DX003 (ip), vehicle: saline): 120 % of control

CCN(CC)CCCNc1cccc2c(C)cc(OC)nc12
T/C [7]: 97 % of control
T/C [8]: 114 % of control
